Results: patent US7932063B2, “Treatment of biomass to obtain fermentable sugars” (E. I. du Pont de Nemours and Company, priority 2005, dated 2011)
Read-outs that look alike come from different tables or passages of the source.

System: Z. mobilis strain 8b
[1] = medium supplemented with 6 g/L acetamide, pH 6.0, 30° C., vs unsupplemented control, FIG. 1
[2] = medium supplemented with 7.2 g/L acetic acid, pH 6.0, 30° C., vs unsupplemented control, FIG. 1

Text: Fermentation medium was composed of 10 g/L yeast extract, 2 g/L KH2PO4, 70 g/L glucose, 40 g/L xylose and 0.1 M MES buffer.

CC(N)=O [acetamide]
final density of Z. mobilis [1]: no influence
growth rate of Z. mobilis [1]: no influence
inhibition of biocatalyst growth (summary statement referring to Example 12): non-inhibitory

CC(=O)O [acetic acid]
cell yield (as measured by dry cell mass) [2]: lower cell yield
growth rate of Z. mobilis [2]: reduced growth rate
